Earlier results, collected in patent US8907090B2, “Processes for preparing different forms of (S)-(+)-Clopidogrel bisulfate” (Cadila Healthcare Limited, priority 2003, dated 2014).

Columns and labels:
[1] = tested on: platelet aggregation; settings: comparison of enantiomers
[2] = comparison of enantiomers

Row | Structure (SMILES) | antiaggregant platelet activity [1] | tolerance [2]
1 | COC(=O)[C@H](c1ccccc1Cl)N1CCc2sccc2C1 (single isomer, unassigned) [dextrorotatory enantiomer] | excellent antiaggregant platelet activity | –
2 | COC(=O)C(c1ccccc1Cl)N1CCc2sccc2C1 (single isomer, unassigned) [levorotatory enantiomer] | less active | less tolerated
